Target: T1, GHS-R1a receptor (ghrelin receptor) (Homo sapiens, UniProt Q92847)
T1 construct: gene GHSR; human GHS-R1a with C-terminal EGFP tag, stably expressed in Hek293a cells
Experiment: calcium mobilisation in Hek-GHS-R1a-EGFP cells; no response in wild-type Hek or 5-HT2C cells; reduced by JMV2959
Format: cell-based

T1 sequence (Q92847 whole entry): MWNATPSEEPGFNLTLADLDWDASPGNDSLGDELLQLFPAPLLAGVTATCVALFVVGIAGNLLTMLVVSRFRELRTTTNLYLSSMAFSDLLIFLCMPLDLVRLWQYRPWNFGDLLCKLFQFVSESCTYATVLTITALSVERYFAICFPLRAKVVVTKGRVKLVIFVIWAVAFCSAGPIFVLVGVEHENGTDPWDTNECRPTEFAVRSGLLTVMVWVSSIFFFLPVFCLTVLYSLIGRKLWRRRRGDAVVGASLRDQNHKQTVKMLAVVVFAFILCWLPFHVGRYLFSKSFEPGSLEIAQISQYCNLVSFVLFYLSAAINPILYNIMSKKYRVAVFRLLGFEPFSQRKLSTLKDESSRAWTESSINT

EC50: 3.1 µM
SMILES: COc1cc(C)n(C)c(=O)c1C(F)(F)F [compound 8, 4-Methoxy-1,6-dimethyl-3-(trifluoromethyl)pyridin-2(1H)-one]

— paper PMC5098229, “A Novel Non-Peptidic Agonist of the Ghrelin Receptor with Orexigenic Activity In vivo” (Scientific Reports, 2016)
